Three compounds from patent US10036741B2, “Systems, models and methods for identifying and evaluating skin-active agents effective for treating an array of skin disorders” (The Procter & Gamble Company, priority 2012, dated 2018) can be followed below.

One test relates to dandruff. The test can be described thus: Effect of ZPT-containing shampoo on the unhealthy skin gene expression signature in dandruff sufferers (Study 2). Particulars: dandruff subjects, scalp biopsies, three weeks of treatment. The test is classed as in vivo, human. As for the experimental part:
Hierarchical Cluster Analysis of Dandruff vs. Non-Dandruff (Study 1): Genome-wide transcriptional profiles of the dandruff condition and healthy scalp were assessed using RNA extracted from full thickness scalp biopsies. […] Each row in FIG. 9 represents a single probe set and each column represents the group average of all subjects (not a single microarray experiment).
Effect of zinc pyrithione (ZPT) on the Unhealthy Skin Gene Expression Signature in Dandruff Sufferers (Study 2): We examined the effect of ZPT on the transcriptomic profile in dandruff sufferers during a course of treatment known to resolve the key symptoms of the condition (flake and itch) and substantially restore the scalp skin histology and cell surface biomarker profile to a healthy state. In this study, we were able to replicate our key transcriptomic findings from Study 1 in a second study population. It is notable that using the expression levels of the same 400 probe sets in the unhealthy gene expression signature, which all satisfied the p<0.05 criterion, hierarchical cluster analysis again clearly separated Dandruff from Non-dandruff (see All Dandruff Baseline vs. Non-Dandruff Baseline). […] This underscores the fundamental importance of the gene products associated with this signature to skin homeostasis.

Test [1] relates to unhealthy skin gene expression signature. Description: Connectivity mapping (C-map) query of stored skin instances with the unhealthy skin gene expression signature. The format is cell-based, human. Particulars: text statement on highest-ranked results of Table C. The source says:
Referring to FIG. 6 and FIG. 7, an exemplary method for querying instances with one or more gene expression signatures will now be described. Broadly, the method comprises querying a data architecture of stored instances (e.g., skin instances) with one or more gene signatures (e.g., an unhealthy skin gene expression signature), and applying a statistical method to determine how strongly the gene expression signature genes match the regulated genes in an instance.
The up-score and down-score have, for example, values between +1 and −1. […] In these embodiments, the gene expression signature comprises the combination of the up list and the down list. […]
The combination of the up-score and down-score is used to calculate an overall connectivity score for each instance, and in embodiments where up- and down-score ranges are set between −1 and +1, the connectivity score ranges from −2 to +2, and represents the strength of match between a query gene expression signature and the instance. The sign of the overall score is determined by whether the instance links positivity or negatively to the signature. […]

With zinc pyrithione [zinc pyriothione], the “gene expression profile (400 probe sets of unhealthy skin signature), hierarchical cluster analysis” value with dandruff is given as “reversal of the unhealthy skin gene expression signature”.

For `CC1=C(/C=C/C(C)=C/C=C/C(C)=C/C(=O)O)C(C)(C)CCC1` [All-trans retinoic acid], the “rank of instances in C-map query (linkage score)” value in test [1] is “strongest negative linkage scores”.

Consider `NC(=O)c1cccnc1` [Nicotinamide], for which the “rank of instances in C-map query (linkage score)” value in test [1] is listed as “strongest negative linkage scores”.
